# Measured values taken from paper PMC6120666 (The EMBO Journal, 2018).
# Target: T1, cIAP1 BIR2 - RIPK2 interaction (Homo sapiens, UniProt O43353)
# T1 construct: Pulldown of RIPK2 from U2OS/NOD2 cell lysates with recombinant; endogenous in cells; host or cells: U2OS/NOD2 cell lysate (RIPK2); E. coli BL21 (GST-BIR2-cIAP1)
# Experiment: GST-BIR2-cIAP1 pulldown of RIPK2
# Type: binding
# Details: U2OS/NOD2 lysates; CSLP37 1.8 μM, CSLP43 2 μM
# Protocol: Figure EV4 Inhibition of RIPK2 ubiquitination and cIAP1 binding by CSLP inhibitors • A Coomassie Blue staining of His Trap and gel filtration purified His6‐GST‐XIAP‐BIR2 WT and D214S recombinant proteins at two different concentrations as indicated. • B Pulldown of RIPK2 from U2OS/NOD2 cell lysates with recombinant GST‐BIR2‐cIAP1 in the presence of CSLP inhibitors. […] Purified material and lysates were analyzed by immunoblotting. • C, D Purification of Ub‐conjugates from U2OS/NOD2 cells (C) or THP‐1 cells (D) after treatment with L18‐MDP (200 ng/ml, 1 h) and CSLP compounds as indicated. Purified material and lysates were analyzed by immunoblotting. […]
# For co‐immunoprecipitation of HA‐XIAP with RIPK2, transfected and treated cells were lysed in TBS buffer containing 0.5% NP‐40, cOmplete and PhosSTOP inhibitors (Roche) and the lysate was cleared by centrifugation. The lysates were incubated with anti‐HA‐agarose overnight, washed 3× with lysis buffer, and analyzed by immunoblotting. […] Bound material was washed 3× with lysis buffer or PBS, eluted with 15 mM Glutathione in PBS, and analyzed by immunoblotting. […] The bound material was eluted and analyzed as described above. Ubiquitin conjugates were purified from treated cells using GST‐1xUBA^ubq ubiquitin affinity reagent (termed TUBE pulldown) and analyzed by immunoblotting as described (Fiil et al, 2013). […]
# T1 sequence (O43353 whole entry): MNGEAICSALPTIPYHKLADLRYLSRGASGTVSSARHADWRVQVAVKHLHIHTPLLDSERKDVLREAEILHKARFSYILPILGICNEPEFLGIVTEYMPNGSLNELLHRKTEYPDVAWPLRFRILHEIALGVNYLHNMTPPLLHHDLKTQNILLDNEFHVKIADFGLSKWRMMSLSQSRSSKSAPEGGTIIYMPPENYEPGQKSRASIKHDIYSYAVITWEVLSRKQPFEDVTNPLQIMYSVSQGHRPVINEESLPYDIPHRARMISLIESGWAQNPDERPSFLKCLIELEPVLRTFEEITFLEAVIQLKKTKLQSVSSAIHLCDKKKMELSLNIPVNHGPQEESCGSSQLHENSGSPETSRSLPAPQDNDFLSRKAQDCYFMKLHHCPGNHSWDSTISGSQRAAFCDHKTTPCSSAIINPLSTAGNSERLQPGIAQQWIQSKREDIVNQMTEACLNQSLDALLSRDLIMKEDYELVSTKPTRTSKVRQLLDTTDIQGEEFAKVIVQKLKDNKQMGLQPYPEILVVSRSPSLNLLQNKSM
row,SMILES,interaction between GST-BIR2-cIAP1 and RIPK2 in cell lysates
1,CCCS(=O)(=O)Nc1cc(-c2cc(-c3ccc(N4CCNCC4)cc3)cnc2N)cc(F)c1OC [CSLP37],both antagonized
2,CCCS(=O)(=O)Nc1cc(-c2cc(-c3ccc(N4CCNCC4)cc3)cnc2N)cc(OC)c1OC [CSLP43],both antagonized
